# In article PMC3716995, “A phase I study of ridaforolimus in adult Chinese patients with advanced solid tumors” (Journal of Hematology & Oncology, 2013):
# Several values for one entry are separate records, joined by “and”; a condition that tells them apart may be missing. Equal values may be shown once. Read-outs that look alike come from different tables or passages of the source. Marks after values point to notes of the source that are not given here.
# Legend:
# [1] = Whole blood pharmacokinetics of oral ridaforolimus 40 mg in Chinese patients (HPLC-MS/MS, WinNonlin); assay type: in vivo; settings: for AUC(0-t): read-out: AUC0-24; for concentration at 24 h: read-out: C24hr
# Method: (§1) The eligible patients were given the following treatment regimen: a single oral dose of 40 mg of ridaforolimus on Day 1; and then, the treatment started from Day 8 with an oral dose of 40 mg of ridaforolimus for five consecutive days (on Day 8 through Day 12) followed by two day's off (Day 13 and 14). The treatment repeated every 7 days. Four treatment weeks was considered one treatment cycle. Sample blood for PK analysis were collected at the following times: on Day 1 prior to drug administration and for 168 h post-dose (at 1, 2, 3, 4, 6, 8, 24, 72, 96, and 168 h post-treatment); on Day 8 and Day 15 prior to drug administration; on Day 19 prior to drug administration and for 24 h post-dose (at 1, 2, 3, 4, 6, 8 and 24 h post-treatment). We monitored patients’ vital signs and conducted laboratory and physical examinations on trial Day 1, 8 and 19.
# Ridaforolimus concentration in both whole blood and plasma was analyzed using high-performance liquid chromatography with tandem mass spectrometric detection set at a lower limit of quantification of 0.2 ng/mL (Wuxi AppTec, Shanghai, China). Pharmacokinetic analyses were performed with WinNonlin, version 5.2.1 (Pharsight Corp., St. Louis, MO, USA). AUC0-∞, AUC0-24hr, C24hr, and Cmax were determined for each patient on Day 1 and on Day 19, if applicable, and the geometric means as well as the 95% CI were calculated. The accumulation of ridaforolimus was assessed for Cmax and for AUC0-24hr (geometric mean ratio Day 19 / Day 1 and 90% CI).
# [2] = Safety and tolerability (adverse events, CTCAE v4.0) of oral ridaforolimus 40 mg in Chinese patients; assay type: in vivo
# Method: as §1
# (§2) The patients continued to receive 40 mg of ridaforolimus for five consecutive days followed by two day's off until disease progression or intolerability. Averse events were monitored every four weeks and AEs were graded according to the Common Terminology Criteria for Adverse Events version 4.0. We also monitored patients’ vital signs and conducted laboratory and physical examinations every four weeks. Radiographic studies for disease assessment were conducted at baseline and again after every two treatment cycles (thus, every eight weeks). Tumor responses were assessed according to the Response Evaluation Criteria for Solid Tumors 1.1 guidelines. We conducted a full safety assessment in all patients four weeks after the administration of the last treatment dose.
# [3] = test system: treatment-refractory advanced or relapsed solid tumors; test: Tumor response (RECIST 1.1) in Chinese patients; assay type: in vivo
# Method: as §2
# [4] = set-up: method as in internal PK data; settings: Caucasian patients, ref internal PK data, cited from earlier work
# [5] = set-up: method as in PMID 22143378; settings: Japanese patients, cited from earlier work
# [6] = test system: advanced sarcoma; set-up: method as in earlier work; settings: maintenance therapy, cited from earlier work
# [7] = set-up: method as in PMID 18202410, PMID 19228743, PMID 22143378; settings: Caucasians and Japanese patients, cited from earlier work
# [8] = Day 1, single oral dose 40 mg, whole blood, median
# [9] = human, whole blood, po, 40 mg, Day 1, single oral dose 40 mg, whole blood, geometric mean
# [10] = Grade 3 non-serious adverse event
# [11] = Grade 4 non-serious adverse event
# [12] = N = 15, not considered drug-related by the investigator
# [13] = non-serious adverse event, all grades, N = 15
# [14] = single dose, geometric mean (95% CI)
smiles,measurement,setting,value
"CO[C@H]1C[C@@H]2CC[C@@H](C)[C@@](O)(O2)C(=O)C(=O)N2CCCC[C@H]2C(=O)O[C@H]([C@H](C)C[C@@H]2CC[C@@H](OP(C)(C)=O)[C@H](OC)C2)CC(=O)[C@H](C)/C=C(\C)[C@@H](O)[C@@H](OC)C(=O)[C@H](C)C[C@H](C)/C=C/C=C/C=C/1C [ridaforolimus, Ridaforolimus]",Linearity of blood PKs,[1]; AUC0-24hr at steady state lower than AUC0-∞ after single dose,non-linear
same,Apparent t1/2 (elimination half-life),"[1]; Day 1, single oral dose 40 mg, whole blood, harmonic mean",52.9 h
same,Tlag (absorption lag time),[1]; [8],2 h and 2.00 h
same,Tmax,[1]; [8],4.03 h
same,Absorption after oral administration,"[1]; human, in vivo, po",slowly absorbed
same,AUC(0-t),[1]; [9],1850 ng·h/mL
same,concentration at 24 h,[1]; [9],34.8 ng/mL
same,Cmax,"[1]; human, whole blood, po, 40 mg, Day 1, single oral dose 40 mg, whole blood, geometric mean, read-out: Cmax",210 ng/mL
same,half-life,"[1]; human, whole blood, po, 40 mg, Day 1, single oral dose 40 mg, whole blood, harmonic mean, read-out: Apparent t1/2 (elimination half-life) (converted)",53 h
same,Tmax,"[1]; human, whole blood, po, 40 mg, Day 1, single oral dose 40 mg, whole blood, median, read-out: Tmax",4 h
same,Cmax,"[1]; human, whole blood, po, 40 mg, Day 1, single oral dose 40 mg, read-out: Cmax, median value",192 ng/mL
same,AUC(0-t),"[1]; human, whole blood, po, 40 mg, Day 19, multiple once daily oral 40 mg (steady state), whole blood, geometric mean",2010 ng·h/mL
same,concentration at 24 h,"[1]; human, whole blood, po, 40 mg, Day 19, multiple once daily oral 40 mg, whole blood, geometric mean",49.7 ng/mL
same,Cmax,"[1]; human, whole blood, po, 40 mg, Day 19, multiple once daily oral 40 mg, whole blood, geometric mean, read-out: Cmax",167 ng/mL
same,Tmax,"[1]; human, whole blood, po, 40 mg, Day 19, multiple once daily oral 40 mg, whole blood, median, read-out: Tmax",4 h
same,Cmax,"[1]; human, whole blood, po, 40 mg, Day 19, multiple once daily oral 40 mg, read-out: Cmax, median value",203 ng/mL
same,AUC(0-inf),"[1]; human, Day 1, single oral dose 40 mg, whole blood, geometric mean",3650 ng·h/mL
same,"Anaemia Grade 3, number of patients",[2]; [10],2/15
same,"Anaemia Grade 3, percentage of patients",[2]; [10],13.3%
same,"Constipation Grade 3, number of patients",[2]; [10],1/15
same,"Constipation Grade 3, percentage of patients",[2]; [10],6.7%
same,"Fatigue Grade 3, number of patients",[2]; [10],2/15
same,"Fatigue Grade 3, percentage of patients",[2]; [10],13.3%
same,"Gamma-glutamyltransferase increase Grade 3, number of patients",[2]; [10],1/15
same,"Gamma-glutamyltransferase increase Grade 3, percentage of patients",[2]; [10],6.7%
same,"Platelet count decrease Grade 3, number of patients",[2]; [10],1/15
same,"Platelet count decrease Grade 3, percentage of patients",[2]; [10],6.7%
same,"Proteinuria Grade 3, number of patients",[2]; [10],1/15
same,"Proteinuria Grade 3, percentage of patients",[2]; [10],6.7%
same,"Stomatitis Grade 3, number of patients",[2]; [10],2/15
same,"Stomatitis Grade 3, percentage of patients",[2]; [10],13.3%
same,"Anaemia Grade 4, number of patients",[2]; [11],1/15
same,"Anaemia Grade 4, percentage of patients",[2]; [11],6.7%
same,"Platelet count decrease Grade 4, number of patients",[2]; [11],1/15
same,"Platelet count decrease Grade 4, percentage of patients",[2]; [11],6.7%
same,Patients who discontinued as a result of drug-related fatigue,[2]; N = 15,one
same,Patients who discontinued as a result of drug-related interstitial lung disease,[2]; N = 15,three
same,Patients who discontinued as a result of drug-related stomatitis,[2]; N = 15,one
same,Patients who discontinued due to drug-related AEs,[2]; N = 15,five
same,Patients who discontinued treatment as a result of AEs,[2]; N = 15,six
same,"Patients who developed serious AEs, number",[2]; [12],Four
same,"Patients who developed serious AEs, percentage",[2]; [12],26.7%
same,Patients who developed Grade 2 interstitial pneumonitis,[2]; all recovered after interruption and glucocorticoids,Three
same,Non-serious AEs considered Grade 3,[2]; fifteen patients,11
same,Non-serious AEs considered Grade 4,[2]; fifteen patients,2
same,Non-serious AEs deemed by the investigator as drug related,[2]; fifteen patients,111
same,Total number of non-serious AEs reported,[2]; fifteen patients,135
same,Grade 3/4 drug-related AEs,"[2]; human, in vivo","anemia, stomatitis, fatigue, thrombocytopenia, constipation, gamma glutamyltransferase increase, and proteinuria"
same,Most common drug-related adverse events (occurred in ≥40% of patients),"[2]; human, in vivo","stomatitis, proteinuria, leukopenia, hyperglycemia, and pyrexia"
same,"ALT increase, number of patients",[2]; [13],3
same,"ALT increase, percentage of patients",[2]; [13],20%
same,"Anemia, number of patients",[2]; [13],5
same,"Anemia, percentage of patients",[2]; [13],33.3%
same,"Blood alkaline phosphatase increased, number of patients",[2]; [13],4
same,"Blood alkaline phosphatase increased, percentage of patients",[2]; [13],26.7%
same,"Blood cholesterol increased, number of patients",[2]; [13],5
same,"Blood cholesterol increased, percentage of patients",[2]; [13],33.3%
same,"Fatigue, number of patients",[2]; [13],4
same,"Fatigue, percentage of patients",[2]; [13],26.7%
same,"Gamma-glutamyltransferase increased, number of patients",[2]; [13],6
same,"Gamma-glutamyltransferase increased, percentage of patients",[2]; [13],40%
same,"Hyperglycaemia, number of patients",[2]; [13],7
same,"Hyperglycaemia, percentage of patients",[2]; [13],46.7%
same,"Hypoalbuminaemia, number of patients",[2]; [13],5
same,"Hypoalbuminaemia, percentage of patients",[2]; [13],33.3%
same,"Interstitial lung disease, number of patients",[2]; [13],3
same,"Interstitial lung disease, percentage of patients",[2]; [13],20%
same,"Platelet count decrease, number of patients",[2]; [13],5
same,"Platelet count decrease, percentage of patients",[2]; [13],33.3%
same,"Proteinuria, number of patients",[2]; [13],11
same,"Proteinuria, percentage of patients",[2]; [13],73.3%
same,"Pyrexia, number of patients",[2]; [13],6
same,"Pyrexia, percentage of patients",[2]; [13],40%
same,"Stomatitis, number of patients",[2]; [13],12
same,"Stomatitis, percentage of patients",[2]; [13],80%
same,"White blood cell count decrease, number of patients",[2]; [13],8
same,"White blood cell count decrease, percentage of patients",[2]; [13],53.3%
same,Tolerability,"[2]; once a day oral dose of 40 mg, Chinese patients",generally well tolerated
same,"Changes from baseline over time in serum cholesterol, serum glucose, serum triglycerides","[2]; summary statistics, an elevation from baseline was observed",no clinically significant elevations
same,Patients who discontinued treatment because of progressive disease,[3]; N = 15,Eight
same,Partial or complete responses,[3]; RECIST 1.1,absence of partial or complete responses
same,AUC0-24,[4]; multiple dose,"1882(1630, 2180) ng.hr/ml"
same,Cmax,[4]; multiple dose,"160(136, 188) ng/ml"
same,AUC0-24,[4]; [14],"992(801, 1230) ng.hr/ml"
same,Cmax,[4]; [14],"112(84.6, 148) ng/ml"
same,t1/2,"[4]; single dose, harmonic mean (pseudo SD)",42.0(17.7)^d hr
same,Tmax,"[4]; single dose, median (min, max)","2.79(1.42, 9.78) hr"
same,Accumulation ratio AUC0-24,[4]; geometric mean ratio (90% CI),"1.90(1.63, 2.21)"
same,Accumulation ratio Cmax,[4]; geometric mean ratio (90% CI),"1.43(1.22, 1.68)"
same,AUC0-24,[5]; multiple dose,"2,120 (1,320, 3,410) ng.hr/ml"
same,Cmax,[5]; multiple dose,"188 (116, 306) ng/ml"
same,Tmax,[5]; multiple dose,"4.04 (4.00, 8.15) hr"
same,AUC0-24,[5]; [14],"1,470 (914, 2,360) ng.hr/ml"
same,Cmax,[5]; [14],"187 (115, 304) ng/ml"
same,t1/2,"[5]; single dose, harmonic mean (jack-knife SD)","55.8 (50.95, 60.65)^c hr"
same,Tmax,"[5]; single dose, median (min, max)","4.00 (4.00, 8.00) hr"
same,Accumulation ratio AUC0-24,[5]; geometric mean ratio (90% CI),"1.44 (1.05, 1.99)"
same,Accumulation ratio Cmax,[5]; geometric mean ratio (90% CI),"1.01 (0.674, 1.50)"
same,Median PFS,"[6]; vs 14.6 weeks for placebo, P = 0.0001",17.7 weeks
same,Median overall survival at data cut-off (386 deaths),"[6]; vs 83.4 weeks for placebo, P = 0.23",93.3 weeks
same,Tolerability,[7]; oral 40mg per day for five consecutive days followed by two day's off,well tolerated
same,Most important dose limiting toxicity,[7]; oral ridaforolimus,stomatitis
